In paper PMC6467771 (Journal of medicinal chemistry, 2019):

Target: FmlH (Escherichia coli, UniProt Q1RBS0)
Assay type: binding, Escherichia coli (UPEC, CFT073)
Conditions: for IC50: IC50, ELISA, FmlH binding to desialylated bovine submaxillary mucin, average of four or more replicates

SMILES	IC50	fold more potent than the matched pair Gal/GalNAc derivative (ELISA IC50 ratio, 50 vs 51, 30 vs 29)	fold drop in activity relative to 1 (ELISA IC50 ratio)
CC(=O)NC1[C@H](Oc2ccccc2-c2cccc(NC(=O)C(F)(F)F)c2)O[C@H](CO)[C@H](O)[C@@H]1O (stereo in doubt) [Compound 44, N-(2’-(((2S,3S,4R,5R)-3-Acetamido-4,5-dihydroxy-6 (hydroxymethyl)tetrahydro-2H-pyran-2-yl)oxy)-[1,1’-biphenyl]-3-yl)-2,2,2-trifluoroacetamide]	370 nM	–	–
CC(=O)NC1[C@H](Oc2cccc(C)c2-c2cccc(NS(=O)(=O)N(C)C)c2)O[C@H](CO)[C@H](O)[C@@H]1O (stereo in doubt) [Compound 87, N-((2S,3S,4R,5R)-2-((3’-((N,N-Dimethylsulfamoyl)amino)-6-methyl-[1,1’-biphenyl]-2-yl)oxy)-4,5-dihydroxy-6-(hydroxymethyl)-tetrahydro-2H-pyran-3-yl)acetamide]	77 nM	–	–
CC(=O)N[C@H]1[C@H](Oc2ccccc2-c2cc(C(=O)O)cc([N+](=O)[O-])c2)O[C@H](CO)[C@H](O)[C@@H]1O [Compound 29, 2’-(((2S,3S/4R/5R)-3-Acetamido-4,5-dihydroxy-6-(hydroxymethyl)tetrahydro-2H-pyran-2-yl)oxy)-5-nitro-[1, 1’-bi-phenyl]-3-carboxylic Acid]	2200 nM	–	–
O=C(O)c1cc(-c2ccccc2O[C@@H]2O[C@H](CO)[C@H](O)[C@H](O)[C@H]2O)cc([N+](=O)[O-])c1 [Compound 30, 5-Nitro-2’-(((2S,3R,4S,5R,6R)-3,4,5-trihydroxy-6-(hydroxymethyl)-tetrahydro-2H-pyran-2-yl)oxy)-[1,1’-biphenyl]-3-carboxylic Acid]	280 nM	6 fold	–
COc1ccc(C(=O)O)cc1-c1ccccc1O[C@@H]1O[C@H](CO)[C@H](O)[C@H](O)[C@H]1NC(C)=O [Compound 31, 2’-(((2S,3R,4R,5R,6R)-3-Acetamido-4,5-dihydroxy-6 (hydroxymethyl)tetrahydro-2H-pyran-2-yl)oxy)-6-methoxy-[1,1’- biphenyl]-3-carboxylic Acid]	3900 nM	–	6 fold
CC(=O)N[C@H]1[C@H](Oc2ccccc2-c2cccc(O)c2)O[C@H](CO)[C@H](O)[C@@H]1O [Compound 32, N-((2S,3R,4R,5R,6R)-4,5-Dihydroxy-2-((3’-hydroxy-[1,1’ biphenyl]-2-yl)oxy)-6-(hydroxymethyl)tetrahydro-2H-pyran-3-yl)-acetamide]	700 nM	–	–
CC(=O)N[C@H]1[C@H](Oc2ccccc2-c2cccc(OS(C)(=O)=O)c2)O[C@H](CO)[C@H](O)[C@@H]1O [Compound 33, 2’-(((2S,3R,4R,5R,6R)-3-Acetamido-4,5-dihydroxy-6-(hydroxymethyl)tetrahydro-2H-pyran-2-yl)oxy)-[1,1’-biphenyl]-3-yl methanesulfonate]	890 nM	–	–
COc1ccc(O)cc1-c1ccccc1O[C@@H]1O[C@H](CO)[C@H](O)[C@H](O)[C@H]1NC(C)=O [Compound 34, N-((2S,3R,4R,5R,6R)-4,5-Dihydroxy-2-((5’-hydroxy-2’ methoxy-[1,1’-biphenyl]-2-yl)oxy)-6-(hydroxymethyl)tetrahydro-2H-pyran-3-yl)acetamide]	510 nM	–	–
COc1ccc(OS(C)(=O)=O)cc1-c1ccccc1O[C@@H]1O[C@H](CO)[C@H](O)[C@H](O)[C@H]1NC(C)=O [Compound 35, 2’-(((2S,3R,4R,5R,6R)-3-Acetamido-4,5-dihydroxy-6 (hydroxymethyl)tetrahydro-2H-pyran-2-yl)oxy)-6-methoxy-[1,1’-biphenyl]-3-yl Methanesulfonate]	3700 nM	–	–
CC(=O)N[C@H]1[C@H](Oc2ccccc2-c2cccc(F)c2)O[C@H](CO)[C@H](O)[C@@H]1O [Compound 36, N-((2S,3R,4R,5R,6R)-2-((3 ‘-Fluoro-[1,1’-biphenyl]-2-yl)oxy)-4,5-dihydroxy-6-(hydroxymethyl)tetrahydro-2H-pyran-3-yl)acetamide]	1500 nM	–	–
